The source of these data is US6896914B2, “Method for normalizing insulin levels” (priority 2001, dated 2005).

One series deals with obese patients. As to conditions: cited from earlier work.
The next series has as its system mammals including man. Particulars: cited from earlier work.
Series [1] relates to overweight hyperinsulinemic male and female subjects. Nature of the series: Example 2: placebo-controlled crossover study of enteric coated d-manno-heptulose capsules, insulin, glucose, weight. It is filed as in vivo, human. Here is the method:
All study subjects had serum insulin, blood glucose, and C-peptide levels drawn. The relationship of insulin to glucose was determined by the following formula: Glucose (mg %)×0.41−34=Insulin Thus: 83 mg % glucose×0.41=34.03−34=0.03 or, insulin vanishes from the blood at 83 mg %. Subjects were male and females under the age of 50, who were at least 45 pounds overweight according to the body mass index (BMI). […] Sixteen subjects were given 500 mg of d-manno-heptulose (MH) in enteric coated capsules. Sixteen subjects were given placebo in similar appearing capsules. All subjects received doses four times a day, which were orally ingested in the presence of the investigator. Insulin and glucose levels were drawn one hour after ingesting capsules, two hours afterwards, and four hours afterwards. C-peptide levels were measured once a day. Patients were asked to keep meal logs, recording everything that they ingested by mouth, on a daily basis, for the duration of the study. The subjects and investigators were both blind to the group receiving active medication. At the end of three weeks, the test groups were switched. The group receiving active dosage forms was switched with the group receiving placebo. The initial time period was designed to be three weeks. However, four patients dropped out because they found the schedule too demanding. Nine of the control group patients expressed a desire to quit, and four were allowed to withdraw. The remaining twenty-four subjects completed the six week period.

Series [2] has as its system overweight male human subjects. As to the kind of experiment: Example 1: double-blind study of enteric coated oral d-mannoheptulose with 1-glutamic acid, serum insulin, glucose and C-peptide. Type of series: in vivo. As for the experimental part: A six-week double-blind study would also determine if combining an amino acid (i.e., 1-glutamic acid) and enteric coating would enhance the bioavailability and efficacy of oral d-mannoheptulose and prevent diarrhea. The amount of amino acid used was 500 mg per dose.
Thirteen healthy male human subjects, aged thirty-seven to fifty-seven, each at least forty pounds overweight, underwent screening blood testing. The Automated Chemistry Profile used included the following measurements: Serum Glucose, BUN, Creatinine, BUN/Creatinine Ratio, Uric Acid, Sodium, Potassium, Chloride, Carbon Dioxide, Calcium, Phosphorous, Total Protein, Albumin, Globulin, A/G Ratio, Total Bilirubin, Alkaline Phosphatase, LDH, AST, ALT, and Iron. A Lipid Profile, and CBC with Differential were also measured. Tests specific to this study included C-Peptide, Serum Insulin, and Hemoglobin A1c.
Subjects were randomly placed into two groups: “A” (Purple Caps) and “B” (Green Caps). Neither subject nor investigator knew which dosage forms were active and which were placebo. Once a week for three weeks, all subjects came to a local medical office while fasting and, stayed for a period of at least four hours. Blood was drawn from each subject in the fasting state, immediately following a high sugar meal, and at one and three hours after taking 500 mg. of MH. Additionally, fasting blood levels of glucose and insulin were drawn two times a week.
The intent was to cross over the patient test groups at the end of three weeks. But, the response of the group receiving active substance was so obvious that any attempt to continue the double-blind methodology in secrecy was pointless. The active compound group not only stabilized their eating patterns, but also experienced considerable weight loss.
At the end of the third week, the code was broken, confirming that the subjects with the dramatic response were getting the active oral dosage form. Thereafter, all subjects were given the same active dosage form.

The next series has as its system Hexokinase. As to conditions: cited from earlier work.
The mark [3] stands for this setting: twelve active medication subjects, first three weeks.

Turning to `CC1=NS(=O)(=O)c2cc(Cl)ccc2N1` [diazoxide], in the series with obese patients, the “effect on blood pressure” value was “drops blood pressure dangerously” and the “effect on insulin levels” value is “lowers insulin levels”.

Consider `O=C(CO)[C@@H](O)[C@@H](O)[C@H](O)[C@H](O)CO` [MH, d-mannoheptulose], for which the “effect on insulin release” value in the series on mammals including man (mammals including man) was “lower fasting and glucose stimulated peak insulin release”. Also, in the series on mammals including man (oral), the “absorption on oral administration” value is on record as “poor absorption on oral administration” and the “side effects on oral administration” value is “unpleasant side effects (e.g., diarrhea, nausea)”. Further, the Fasting insulin in series [1] (after active medication for three days, all subjects of A group) was determined as 0. Also, the “time to begin lowering plasma insulin levels” value in series [1] (after administration) is “two”. For the same compound, in series [1] (all MH recipients while on medication), the “tolerance for high-sugar foods” value is “diminished tolerance for high-sugar foods”. The compound also registered a Fasting insulin in series [1] (control group changed from placebo to MH, middle of second day, after six doses) of 0. Also, the “average per day weight loss” value in series [1] (control group changed from placebo to MH, over twenty-one days) is given as 2.2 lbs. Moreover, the “average weight loss after switch to placebo” value in series [1] (original twelve active patients) is listed as 0.7 lbs. per day. Further, the “duration of insulin suppressing action after switch to placebo” value in series [1] (original twelve active patients, on average) is given as “eleven”. Also, in series [1] (setting [3]), the Average weight loss is 1.6 lbs. per day per subject, the greatest weight loss came to 1.9 lbs. per day and the lowest weight loss is 1.2 lbs. per day. In addition, the “average decrease of insulin levels” value in series [1] (two hours after administration of MH, A group, twelve subjects) was 81%. The “weight loss and carbohydrate craving reported by participants” value in series [2] (all study participants) is “significant weight-loss and reduction in carbohydrate craving”. The “average fasting serum insulin lower than baseline” value in series [2] (end of study vs baseline at beginning of study) turned out to be 26.41%. Moreover, in series [2] (end of study vs baseline, two subjects), the “average reduction in C-peptide levels” value is 43%. For the same compound, the “fasting serum glucose higher than baseline” value in series [2] (end of study vs baseline, called insignificant) is reported as 1.52%. Also, in series [2] (enterically coated MH), the “lowering elevated serum insulin” value was “effective short-term and long-term”; the nausea or diarrhea entry is “not one instance of nausea or diarrhea was reported”. Besides, the indications of toxicity entry in series [2] (hematological or symptomatic, any subject) was “no hematological or symptomatic indications of toxicity”. For the same compound, the “glycemic state of participant hypoglycemic at entry” value in series [2] (one study participant) is listed as “became normalglycemic”. In series [2] (three hours after one dose of MH, same-day glucose challenge, average), the “serum insulin lower than baseline fasting insulin” value is listed as 22.4%. In addition, in series [2] (three hours after one dose of MH, same-day glucose challenge, called insignificant), the average glucose increase amounted to 1.92%. In the series on Hexokinase, the inhibition of hexokinase result is on record as “inhibits hexokinase in a predominantly competitive manner”.
